Measured values as given in publication PMC5075052, “Modulation of the Substitution Pattern of 5-Aryl-2-Aminoimidazoles Allows Fine-Tuning of Their Antibiofilm Activity Spectrum and Toxicity” (Antimicrobial Agents and Chemotherapy, 2016).
Where two headings read alike, the source gives them in different places.

What was measured:
[1] = tested on: E. coli TG1 + P. aeruginosa PA14; experiment: Mixed-species E. coli-P. aeruginosa biofilm assay (peg, crystal violet); assay type: cell-based, Escherichia coli + Pseudomonas aeruginosa
Experimental: Overnight cultures of E. coli TG1 and P. aeruginosa PA14 were diluted 1/100 in the same vial of TSB diluted 1/20 to form a mixed-culture suspension. Next, 2-fold serial dilutions of the compounds (dissolved in 100% DMSO or ethanol) in 100 μl liquid broth (TSB diluted 1/20) per well were prepared in the microtiter plate of the Calgary biofilm device (Nunc no. 269789) in duplicate or triplicate with a maximum concentration of 1,600 μM and a minimum concentration of 0.8 μM. One hundred microliters of the mixed-culture suspension was added to each well of the microtiter plate, resulting in a total volume of 200 μl medium per well (final concentration range of compounds, 800 μM [2% DMSO or ethanol] to 0.4 μM [0.001% DMSO or ethanol]). The pegged lid was placed on the microtiter plate, and the plate was incubated for 72 h at 37°C, which allowed biofilm formation on the pegs (Nunc no. 269789) of the Calgary biofilm device. After 72 h, the biofilm was colored with crystal violet as described above ([74]). The OD570 (biofilm cells) and OD600 (planktonic cells) were measured, and the BIC50 and the IC50, respectively, were calculated.

[2] = tested on: S. aureus ATCC 6538 + S. epidermidis; experiment: Mixed-species S. aureus-S. epidermidis biofilm assay (peg, crystal violet); assay type: cell-based, Staphylococcus aureus + Staphylococcus epidermidis; conditions: 37°C
Experimental: Overnight cultures of S. aureus ATCC 6538 and S. epidermidis were grown in LB medium and were diluted 1/200 in the same vial of TSB to form a mixed-culture suspension. Next, 2-fold serial dilutions of the compounds (dissolved in 100% DMSO or ethanol) in 100 μl TSB medium per well were prepared in the microtiter plate (Nunc no. 269789) in duplicate or triplicate with a maximum concentration of 1,600 μM and a minimum concentration of 0.8 μM. One hundred microliters of the mixed-culture suspension was added to each well of the microtiter plate, resulting in a total volume of 200 μl medium per well (final concentration range of compounds, 800 μM [2% DMSO or ethanol] to 0.4 μM [0.001% DMSO or ethanol]). The cells were then incubated for 48 h at 37°C, which allowed biofilm formation on the pegs (Nunc no. 269789) of the Calgary biofilm device. After 24 h, fresh medium with compounds was added to the wells, and after 48 h, the biofilm was colored with crystal violet as described above ([74]). The OD570 (biofilm) and OD600 (planktonic) were measured, and the BIC50 and the IC50, respectively, were calculated.

[3] = tested on: E. coli TG1; experiment: Monospecies bacterial biofilm inhibition, static peg assay; assay type: cell-based, Escherichia coli; conditions: Escherichia coli
Experimental: (§1) A static peg assay, described previously ([27], [74]), was used for bacterial biofilm formation. The Calgary biofilm device consists of a platform carrying 96 polystyrene pegs (Nunc no. 445497) that fits as a microtiter plate lid, with 1 peg hanging into each microtiter plate well (Nunc no. 269789). Twofold serial dilutions of the compounds (dissolved in 100% dimethyl sulfoxide [DMSO] or ethanol) in 100 μl liquid broth (TSB diluted 1/20) per well were prepared in the microtiter plate in duplicate or triplicate with a maximum concentration of 1,600 μM and a minimum concentration of 0.8 μM. Subsequently, an overnight culture of S. Typhimurium ATCC 14028, P. aeruginosa PA14, E. coli TG1, S. epidermidis, S. aureus SH1000, or S. aureus ATCC 6538 (all grown in LB) was diluted 1:100 into TSB diluted 1/20 (or TSB for S. epidermidis, S. aureus SH1000, and S. aureus ATCC 6538), whereas overnight cultures of S. liquefaciens MG44 and B. cepacia LMG1222T were diluted 1:50 into TSB diluted 1/20. P. gingivalis ATCC 33277 cultures were diluted in TSB diluted 1/20 to have a final concentration of 1 × 10^8 cells/ml. Next, 100 μl was added to each well of the microtiter plate, resulting in a total volume of 200 μl medium per well (final concentration range of compounds, 800 μM [2% DMSO or ethanol] to 0.4 μM [0.001% DMSO or ethanol]). In the next step, the pegged lid was placed on the microtiter plate and the plate was incubated for 24 h or 48 h at 25°C or 37°C without shaking. At 37°C, the plates were placed in a sealed container with wet towels on the bottom to prevent evaporation of the growth medium. Biofilms of P. gingivalis ATCC 33277 were grown anaerobically at 37°C for 72 h. During this incubation period, biofilms were formed on the surface of the pegs. After incubation, the optical density at 600 nm (OD600) for the planktonic cells in the microtiter plate was measured using a Synergy MX multimode reader (BioTek, Winooski, VT). This gives a first indication of the effect of the compounds on planktonic growth. For quantification of biofilm formation, the pegs were washed once in 200 μl PBS. The remaining attached bacteria were stained for 30 min with 200 μl 0.1% (wt/vol) crystal violet in an isopropanol-methanol-PBS solution (1:1:18, vol/vol). Excess stain was rinsed off by placing the pegs in a 96-well plate filled with 200 μl distilled water per well. After air drying of the pegs (30 min), the dye bound to the adherent biofilm was extracted with 30% glacial acetic acid (200 μl per well of a 96-well plate). The optical density at 570 nm (OD570) of each well was measured using a Synergy MX multimode reader (BioTek, Winooski, VT). The concentration of each compound needed to inhibit biofilm formation by 50% (BIC50) and the concentration of each compound needed to inhibit planktonic growth by 50% (IC50) were determined from the concentration gradient by using nonlinear curve fitting (GraphPad Prism software, version 5; GraphPad Software, Inc., La Jolla, CA). In the same assay, the effect on planktonic growth was evaluated. The activity was considered biofilm specific if the BIC50 was at least two times lower than the IC50. Data represent the means from at least 3 technical repeats with the corresponding 95% confidence intervals (provided in the supplemental material).

[4] = tested on: P. aeruginosa PA14; experiment: as above; assay type: cell-based, Pseudomonas aeruginosa; conditions: Pseudomonas aeruginosa
Experimental: as §1

[5] = tested on: S. aureus ATCC 6538; experiment: Monospecies bacterial biofilm inhibition, static peg assay (Calgary device, crystal violet; planktonic OD600); assay type: cell-based, Staphylococcus aureus; conditions: Staphylococcus aureus
Experimental: as §1

[6] = 72 h, mixed E. coli TG1 + P. aeruginosa PA14, 37°C, read-out: IC50 (planktonic growth)
[7] = 72 h, mixed E. coli TG1 + P. aeruginosa PA14 biofilm, 37°C, read-out: BIC50
[8] = 48 h, mixed S. aureus ATCC 6538 + S. epidermidis biofilm, read-out: BIC50
[9] = 48 h, mixed S. aureus ATCC 6538 + S. epidermidis, read-out: IC50 (planktonic growth)
[10] = TG1, E. coli TG1, 37°C, read-out: BIC50
[11] = TG1, E. coli TG1, 37°C, read-out: IC50 (planktonic growth)
[12] = PA14, P. aeruginosa PA14, 25°C, read-out: BIC50
[13] = PA14, P. aeruginosa PA14, 25°C, read-out: IC50 (planktonic growth)
[14] = PA14, P. aeruginosa PA14, 37°C, read-out: BIC50
[15] = PA14, P. aeruginosa PA14, 37°C, read-out: IC50 (planktonic growth)
[16] = ATCC6538, read-out: BIC50 (concentration needed to inhibit biofilm formation by 50%), S. aureus ATCC 6538, 37°C
[17] = ATCC6538, read-out: IC50 (concentration needed to inhibit planktonic growth by 50%), S. aureus ATCC 6538, 37°C, planktonic OD600
[18] = mixed E. coli TG1 + P. aeruginosa PA14, 37°C, read-out: IC50 (planktonic growth)
[19] = mixed E. coli TG1 + P. aeruginosa PA14 biofilm, 37°C, read-out: BIC50
[20] = mixed S. aureus ATCC 6538 + S. epidermidis biofilm, read-out: BIC50
[21] = mixed S. aureus ATCC 6538 + S. epidermidis, read-out: IC50 (planktonic growth)
[22] = TG1, E. coli TG1, 25°C, read-out: BIC50
[23] = TG1, E. coli TG1, 25°C, read-out: IC50 (planktonic growth)
[24] = ATCC6538, S. aureus ATCC 6538, 37°C, planktonic OD600, read-out: IC50 (concentration needed to inhibit planktonic growth by 50%)
[25] = ATCC6538, S. aureus ATCC 6538, 37°C, read-out: BIC50 (concentration needed to inhibit biofilm formation by 50%)

Row | IC50 [4, 13] [µM] | IC50 [1, 18] [µM] | IC50 [1, 19] [µM] | IC50 [2, 20] [µM] | IC50 [2, 21] [µM] | IC50 [3, 22] [µM] | IC50 [3, 23] [µM] | Structure (SMILES) | IC50 [1, 6] [µM] | IC50 [1, 7] [µM] | IC50 [2, 8] [µM] | IC50 [2, 9] [µM] | IC50 [3, 10] [µM] | IC50 [3, 11] [µM] | IC50 [4, 12] [µM] | IC50 [4, 14] [µM] | IC50 [4, 15] [µM] | IC50 [5, 16] [µM] | IC50 [5, 17] [µM] | IC50 [5, 24] [µM] | IC50 [5, 25] [µM]
1 |  |  |  |  |  |  |  | Clc1ccc(-c2cnc(NC3CCCC3)[nH]2)cc1 [Compound 5] | > 400 | 0.5 | ~66.6 | ~91.7 | ~45.7 | 17.1 | 13.5 | > 400 | > 400 | 34.4 | 62.3 |  | 
2 | > 400 | > 400 | > 400 | ~5.6 | 15.5 | 43 | > 400 | CCCCCCCCn1c(-c2ccc(Br)cc2)cnc1NC1CCCC1 [Compound 8g] |  |  |  |  | > 400 | 237 | > 400 | > 400 | > 400 |  |  | 19.1 | 8.5
3 |  |  |  |  |  |  |  | CCCCNc1ncc(-c2ccc(Br)cc2)[nH]1 [Compound 4] | > 400 | 17.8 | 6.8 | ~118 | 84.7 | 23 | 9.8 | > 400 | > 400 | ~12.3 | 60.1 |  | 
4 | 62.9 | > 400 | 101 | ~3 | ~23.6 | ~26.7 | 189 | CCCCCCCCn1c(-c2ccccc2)cnc1NC1CCCC1 [Compound 8e] |  |  |  |  | ~27.6 | 10.5 | > 400 | > 400 | 167 |  |  | 46.5 | 1
5 |  |  |  |  |  |  |  | CC(C)CNc1ncc(-c2ccc(Cl)cc2)[nH]1 [Compound 3] | > 400 | 7.4 | ~26.3 | ~140 | 110 | 30 | 0.9 | > 400 | > 400 | 95.3 | ~96.1 |  | 

Row | Structure (SMILES) | IC50 [4, 13] [µM] | IC50 [1, 18] [µM] | IC50 [1, 19] [µM] | IC50 [2, 20] [µM] | IC50 [2, 21] [µM] | IC50 [3, 22] [µM] | IC50 [3, 23] [µM] | IC50 [1, 6] [µM] | IC50 [1, 7] [µM] | IC50 [2, 8] [µM] | IC50 [2, 9] [µM] | IC50 [3, 10] [µM] | IC50 [3, 11] [µM] | IC50 [4, 12] [µM] | IC50 [4, 14] [µM] | IC50 [4, 15] [µM] | IC50 [5, 16] [µM] | IC50 [5, 17] [µM] | IC50 [5, 24] [µM] | IC50 [5, 25] [µM]
6 | Brc1ccc(-c2cnc(NCCn3cc(C4CC4)nn3)[nH]2)cc1 [Compound 6] | > 400 |  |  |  |  |  |  | > 400 | 34.6 | 33.9 | ~392 | ~192 | 183 | 71.6 | > 400 | > 400 | 75.2 | > 400 |  | 
